Experimental data from patent publication US9096624B2 (OSI Pharmaceuticals, LLC, priority 2009, dated 2015).

Experiments:
FAK [1] = biological target: T1, FAK (Homo sapiens, UniProt Q05397); test: Cell-based capture ELISA for inhibition of FAK autophosphorylation [pY397] in MiaPaCa2 cells
Protocol: Cell-Based Assays for Inhibition of FAK Autophosphorylation: MiaPaCa2 and U87MG
ELISA kit from Invitrogen (KHO0441).
Reagents Provided in Biosource FAK [pY397]
The cells were then suspended in cell assay medium.

FAK [2] = biological target: T1, FAK; test: Cell-based capture ELISA for inhibition of FAK autophosphorylation [pY397] in U87MG cells
FAK [3] = biological target: T1, FAK; test: biochemical
[4] = MIA-PaCa2 cells, + 50% mouse plasma (Table 3), read-out: Mean FAK Cell Mechanistic IC50 + 50% mP MIA-PaCa2
[5] = Mean FAK Cell Mechanistic IC50 + 50% mP U87MG, + 50% mouse plasma

T1 sequence (Q05397 whole entry): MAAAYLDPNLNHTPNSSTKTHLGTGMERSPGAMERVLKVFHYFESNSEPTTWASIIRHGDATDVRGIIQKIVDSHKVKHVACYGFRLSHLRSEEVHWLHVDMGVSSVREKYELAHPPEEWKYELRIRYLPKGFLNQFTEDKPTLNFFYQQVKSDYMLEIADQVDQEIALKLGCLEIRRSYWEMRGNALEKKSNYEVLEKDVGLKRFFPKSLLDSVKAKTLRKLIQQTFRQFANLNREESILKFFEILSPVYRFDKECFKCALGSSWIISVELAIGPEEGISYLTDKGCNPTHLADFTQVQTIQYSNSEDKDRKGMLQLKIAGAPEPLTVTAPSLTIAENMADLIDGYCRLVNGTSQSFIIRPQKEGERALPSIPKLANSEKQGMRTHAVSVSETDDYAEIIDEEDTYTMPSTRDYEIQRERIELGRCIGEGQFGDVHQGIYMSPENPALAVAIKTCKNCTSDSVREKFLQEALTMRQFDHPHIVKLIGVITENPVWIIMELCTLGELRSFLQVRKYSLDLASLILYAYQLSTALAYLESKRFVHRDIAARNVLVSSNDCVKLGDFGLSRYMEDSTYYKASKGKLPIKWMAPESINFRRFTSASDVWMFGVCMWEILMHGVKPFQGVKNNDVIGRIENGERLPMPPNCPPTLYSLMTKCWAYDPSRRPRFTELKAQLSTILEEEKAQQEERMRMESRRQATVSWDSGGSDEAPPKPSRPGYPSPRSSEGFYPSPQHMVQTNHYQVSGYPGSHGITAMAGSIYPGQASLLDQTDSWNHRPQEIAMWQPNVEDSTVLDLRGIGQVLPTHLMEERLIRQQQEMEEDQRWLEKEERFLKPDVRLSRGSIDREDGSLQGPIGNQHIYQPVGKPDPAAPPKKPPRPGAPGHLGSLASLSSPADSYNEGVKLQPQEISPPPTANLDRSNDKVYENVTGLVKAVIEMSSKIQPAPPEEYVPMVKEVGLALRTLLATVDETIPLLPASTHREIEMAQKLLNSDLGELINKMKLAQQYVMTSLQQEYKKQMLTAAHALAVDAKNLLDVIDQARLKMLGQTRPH

Row | Compound | IC50 (FAK [3]) [µM] | IC50 (FAK [2]; [5]) [µM] | also measured
1 | CCOP(=O)(Cc1ccc(Nc2ncc(C(F)(F)F)c(Nc3ccccc3C(=O)NC)n2)c(OC)c1)OCC [Ex. 53, diethyl (3-methoxy-4-{[4-{[2-(methylcarbamoyl)phenyl]amino}-5-(trifluoromethyl)pyrimidin-2-yl]amino}benzyl)phosphonate] | < 1 |  | IC50 (FAK [1]; MIA-PaCa2 cells on fibronectin, 2 h, no plasma, read-out: Mean FAK Cell Mechanistic IC50 MIA-PaCa2): < 1 µM; IC50 (FAK [1]; MIA-PaCa2 cells, + 50% human plasma, read-out: Mean FAK Cell Mechanistic IC50 + 50% hP MIA-PaCa2): < 1 µM; IC50 (FAK [2]; U87MG FAK Cell Mech IC50 +hP, + human plasma): 0.16 µM; IC50 (FAK [2]; U87MG FAK Cell Mech IC50 +mP, + mouse plasma): 0.07 µM
2 | CCOP(=O)(Cc1ccc(Nc2ncc(C(F)(F)F)c(Nc3ccc([C@H]4CC[C@H](O)CC4)cc3C(=O)NC)n2)cc1)OCC [Example 139, Diethyl (4-{[4-{[4-(trans-4-hydroxycyclohexyl)-2-(methylcarbamoyl)phenyl]amino}-5-(trifluoromethyl)pyrimidin-2-yl]amino}benzyl)phosphonate] | < 1 | 1 to 10 | IC50 (FAK [1]; [4]): < 1 µM
3 | CCOP(=O)(Cc1ccc(Nc2ncc(C(F)(F)F)c(Nc3ccc([C@H]4CC[C@H](O)CC4)cc3C(=O)NC)n2)c(OC)c1)OCC [Example 141, Diethyl (4-{[4-{[4-(trans-4-hydroxycyclohexyl)-2-(methylcarbamoyl)phenyl]amino}-5-(trifluoromethyl)pyrimidin-2-yl]amino}-3-methoxybenzyl)phosphonate] | < 1 | < 1 | IC50 (FAK [1]; [4]): < 1 µM
4 | CCOP(=O)(Cc1ccc(Nc2ncc(C(F)(F)F)c(Nc3ccccc3C(=O)NC)n2)c(OC)c1F)OCC [Example 147, Diethyl (2-fluoro-3-methoxy-4-{[4-{[2-(methylcarbamoyl)phenyl]amino}-5-(trifluoromethyl)pyrimidin-2-yl]amino}benzyl)phosphonate] | < 1 | < 1 | IC50 (FAK [1]; [4]): < 1 µM
5 | CCOP(=O)(Cc1ccc(Nc2ncc(C(F)(F)F)c(Nc3ccc(-c4cnn(CCCO)c4)c4c3C(=O)N(C)C4)n2)cc1)OCC [Example 156, Diethyl (4-{[4-({7-[1-(3-hydroxypropyl)-1H-pyrazol-4-yl]-2-methyl-3-oxo-2,3-dihydro-1H-isoindol-4-yl}amino)-5-(trifluoromethyl)pyrimidin-2-yl]amino}benzyl)phosphonate] | < 1 | < 1 | IC50 (FAK [1]; [4]): < 1 µM
6 | CCOP(=O)(Cc1ccc(Nc2ncc(C(F)(F)F)c(Nc3cccc4c3C(=O)N(C)C4C)n2)c(OC)c1)OCC (stereo not drawn) [Example 158, Diethyl [4-({4-[(1,2-dimethyl-3-oxo-2,3-dihydro-1H-isoindol-4-yl)amino]-5-(trifluoromethyl)pyrimidin-2-yl}amino)-3-methoxybenzyl]phosphonate] | < 1 | < 1 | IC50 (FAK [1]; [4]): < 1 µM
7 | CCOP(=O)(Cc1ccc(Nc2ncc(C(F)(F)F)c(Nc3ccc([C@H]4CC[C@@](C)(C(=O)O)CC4)c4c3C(=O)N(C)C4)n2)c(OC)c1)OCC [Example 284, cis-4-(7-{[2-({4-[(Diethoxyphosphoryl)methyl]-2-methoxyphenyl}amino)-5-(trifluoromethyl)pyrimidin-4-yl]amino}-2-methyl-1-oxo-2,3-dihydro-1H-isoindol-4-yl)-1-methylcyclohexanecarboxylic acid] | < 1 | < 1 | 
8 | CCOP(=O)(Cc1ccc(Nc2ncc(C(F)(F)F)c(Nc3ccc([C@H]4CC[C@@](C(=O)O)(N(C)C)CC4)c4c3C(=O)N(C)C4)n2)c(OC)c1)OCC [Example 285, cis-4-(7-{[2-({4-[(diethoxyphosphoryl)methyl]-2-methoxyphenyl}amino)-5-(trifluoromethyl)pyrimidin-4-yl]amino}-2-methyl-1-oxo-2,3-dihydro-1H-isoindol-4-yl)-1-(dimethylamino)cyclohexanecarboxylic acid] | < 1 | < 1 | 
9 | CCOP(=O)(Cc1ccc(Nc2ncc(C(F)(F)F)c(Nc3ccc([C@H]4CC[C@H](O)CC4)c4c3C(=O)N(C)C4)n2)c(OC)n1)OCC [Example 286, Diethyl [(5-{[4-{[7-(trans-4-hydroxycyclohexyl)-2-methyl-3-oxo-2,3-dihydro-1H-isoindol-4-yl]amino}-5-(trifluoromethyl)pyrimidin-2-yl]amino}-6-methoxypyridin-2-yl)methyl]phosphonate] | < 1 | < 1 | 
10 | CCOP(=O)(Cc1ccc(Nc2ncc(C(F)(F)F)c(Nc3ccc(N4CCNC(C(=O)O)C4)c4c3C(=O)N(C)C4)n2)c(OC)c1)OCC (stereo not drawn) [Example 287, 4-(7-{[2-({4-[(Diethoxyphosphoryl)methyl]-2-methoxyphenyl}amino)-5-(trifluoromethyl)pyrimidin-4-yl]amino}-2-methyl-1-oxo-2,3-dihydro-1H-isoindol-4-yl)piperazine-2-carboxylic acid] | < 1 | 1 to 10 | 
11 | CCOP(=O)(Cc1ccc(Nc2ncc(C(F)(F)F)c(Nc3ccc([C@H]4CC[C@H](OCOP(=O)(O)O)CC4)c4c3C(=O)N(C)C4)n2)c(OC)c1)OCC [Example 288, {[trans-4-(7-{[2-({4-[(diethoxyphosphoryl)methyl]-2-methoxyphenyl}amino)-5-(trifluoromethyl)pyrimidin-4-yl]amino}-2-methyl-1-oxo-2,3-dihydro-1H-isoindol-4-yl)cyclohexyl]oxy}methyl phosphate] | < 1 | < 1 | 
12 | CCOP(=O)(Cc1ccc(Nc2ncc(C(F)(F)F)c(Nc3ccc(-c4cnn(CCCO)c4)c4c3C(=O)N(C)C4)n2)c(OC)c1)OCC [Example 289, Diethyl (4-{[4-({7-[1-(3-hydroxypropyl)-1H-pyrazol-4-yl]-2-methyl-3-oxo-2,3-dihydro-1H-isoindol-4-yl}amino)-5-(trifluoromethyl)pyrimidin-2-yl]amino}-3-methoxybenzyl)phosphonate] | < 1 | < 1 | 
13 | CCOP(=O)(Cc1ccc(Nc2ncc(C(F)(F)F)c(Nc3cccc4c3c(=O)c(C)cn4C)n2)c(OC)c1)OCC [Example 300, Diethyl [4-({4-[(1,3-dimethyl-4-oxo-1,4-dihydroquinolin-5-yl)amino]-5-(trifluoromethyl)pyrimidin-2-yl}amino)-3-methoxybenzyl]phosphonate] | < 1 | < 1 | 
14 | CCOC(=O)Cn1cc(C)c(=O)c2c(Nc3nc(Nc4ccc(CP(=O)(OCC)OCC)cc4OC)ncc3C(F)(F)F)cccc21 [Example 301] | < 1 | < 1 | 
15 | CCOP(=O)(Cc1ccc(Nc2ncc(C(F)(F)F)c(Nc3cccc4c3c(=O)c(C)cn4CC(=O)O)n2)c(OC)c1)OCC [Example 302] | < 1 | 1 to 10 | 
16 | CCOP(=O)(Cc1ccc(Nc2ncc(C(F)(F)F)c(Nc3cccc4c3c(=O)c(C)cn4CP(=O)(OCC)OCC)n2)c(OC)c1)OCC [Example 303] | < 1 | < 1 | 
17 | CCOC(=O)[C@H]1CC[C@H](c2ccc(Nc3nc(Nc4ccc(CP(=O)(OCC)OCC)cc4OC)ncc3C(F)(F)F)c3c(=O)c(C)c[nH]c32)CC1 [Example 304, Ethyl trans-4-(5-{[2-({4-[(diethoxyphosphoryl)methyl]-2-methoxyphenyl}amino)-5-(trifluoromethyl)pyrimidin-4-yl]amino}-3-methyl-4-oxo-1,4-dihydroquinolin-8-yl)cyclohexanecarboxylate] | < 1 | < 1 | 
18 | CCOC(=O)[C@H]1CC[C@@H](c2ccc(Nc3nc(Nc4ccc(CP(=O)(OCC)OCC)cc4OC)ncc3C(F)(F)F)c3c(=O)c(C)c[nH]c32)CC1 [Example 305, Ethyl cis-4-(5-{[2-({4-[(diethoxyphosphoryl)methyl]-2-methoxyphenyl}amino)-5-(trifluoromethyl)pyrimidin-4-yl]amino}-3-methyl-4-oxo-1,4-dihydroquinolin-8-yl)cyclohexanecarboxylate] | < 1 | < 1 | 
19 | CCOP(=O)(Cc1ccc(Nc2ncc(C(F)(F)F)c(Nc3ccc([C@H]4CC[C@@H](C(=O)O)CC4)c4[nH]cc(C)c(=O)c34)n2)c(OC)c1)OCC [Example 306, Cis-4-(5-{[2-({4-[(diethoxyphosphoryl)methyl]-2-methoxyphenyl}amino)-5-(trifluoromethyl)pyrimidin-4-yl]amino}-3-methyl-4-oxo-1,4-dihydroquinolin-8-yl)cyclohexanecarboxylic acid] | < 1 | < 1 | 
20 | CCOP(=O)(Cc1ccc(Nc2ncc(C(F)(F)F)c(Nc3ccc([C@H]4CC[C@H](C(=O)O)CC4)c4[nH]cc(C)c(=O)c34)n2)c(OC)c1)OCC [Example 307, Trans-4-(5-{[2-({4-[(diethoxyphosphoryl)methyl]-2-methoxyphenyl}amino)-5-(trifluoromethyl)pyrimidin-4-yl]amino}-3-methyl-4-oxo-1,4-dihydroquinolin-8-yl)cyclohexanecarboxylic acid] | < 1 | 1 to 10 | 
21 | CCOP(=O)(Cc1cnc(Nc2ncc(C(F)(F)F)c(Nc3ccc([C@H]4CC[C@H](O)CC4)c4c3C(=O)N(C)C4)n2)c(OC)c1)OCC [Example 308, Diethyl [(6-{[4-{[7-(trans-4-hydroxycyclohexyl)-2-methyl-3-oxo-2,3-dihydro-1H-isoindol-4-yl]amino}-5-(trifluoromethyl)pyrimidin-2-yl]amino}-5-methoxypyridin-3-yl)methyl]phosphonate] | < 1 | 1 to 10 | 
22 | CCOP(=O)(Cc1ccc(Nc2ncc(C(F)(F)F)c(Nc3c4c(cc[n+]3[O-])CN(C)C4=O)n2)c(OC)c1)OCC [Example 310] | < 1 | 1 to 10 | 
23 | CCOP(=O)(Cc1ccc(Nc2ncc(C(F)(F)F)c(Nc3nccc4c3C(=O)N(C)C4)n2)c(OC)c1)OCC [Example 311] | < 1 | 1 to 10 | 
